One compound from patent US11980648B2, “Compositions including ginsenoside 20(S)-Rg3 and methods of using ginsenoside 20(S)-Rg3 to inhibit alpha herpesvirus” (MIDDLE TENNESSEE STATE UNIVERSITY, priority 2020, dated 2024) can be followed below.

As usually defined, the mortality is the share of the test organisms that died. High values mean fewer survivors, low ones more survivors.

For the experiment, the system named is HSV-1. The experiment is described as follows: Mouse susceptibility study, lethal HSV-1 infection. In kind it is in vivo, BALB/c mice. The conditions noted are these: for mortality: BALB/c mice, lethal dose HSV-1. Here is the method: Mouse Susceptibility Study. BALB/c mice and the HSV-1, MacIntyre strain, ATCC VR-539, were used to determine the effectiveness of the 20(S)-Rg3 ginsenoside in preventing mortality in mice caused by infection of HSV-1. On day 1 of the study, four groups consisting of four mice each were injected intraperitoneally with 800,000 PFU of HSV-1, MacIntyre strain, ATCC VR-539. Three of the groups were treated daily with 1 mg/kg, 3 mg/kg, or 10 mg/kg intraperitoneal injections of the 20(S)-Rg3 ginsenoside and one group in the study received no treatment.

Turning to `CC(C)=CCC[C@](C)(O)C1CC[C@]2(C)C1[C@H](O)CC1[C@@]3(C)CC[C@H](O[C@@H]4OC(CO)[C@@H](O)[C@@H](O)C4O[C@@H]4OC(CO)[C@@H](O)[C@@H](O)C4O)C(C)(C)C3CC[C@]12C` (stereo partly drawn) [20(S)-Rg3, 20(S)-ginsenoside-Rg3], the mortality stood at 0% (1 mg/kg daily intraperitoneal), 0% (3 mg/kg daily intraperitoneal) and 0% (10 mg/kg daily intraperitoneal). In addition, the signs of stress entry (daily 1 mg/kg, 3 mg/kg or 10 mg/kg groups, duration of the study) is given as “never showed any signs of stress”.
